This is an account of results in a compilation of properties of binary mixtures (doi:10.1098/rsos.241459/v2/response1).

The nature of this series: xn = mol fraction of the nth substance listed. The conditions noted are these: 298.15 K, 100 kPa.

One may read the viscosity as the resistance of a fluid to flow. Low values mean easy flow, high ones sluggish flow. In the case of `CCCC[n+]1ccn(C)c1.F[B-](F)(F)F` + OCCO, the viscosity (x1 = 0.0895) worked out at 15.5 mPa·s; the viscosity (x1 = 0.1758) amounted to 15.52 mPa·s; the viscosity (x1 = 0.3578) is 18.87 mPa·s; the viscosity (x1 = 0.4397) stood at 21.3 mPa·s; the viscosity (x1 = 0.6482) is on record as 31.97 mPa·s; the viscosity (x1 = 0.8121) amounted to 51.8 mPa·s. Moreover, the electrical conductivity is, setting by setting: (x1 = 0.1758) 0.63 S/m; (x1 = 0.3578) 0.727 S/m; (x1 = 0.4397) 0.766 S/m; (x1 = 0.6482) 0.577 S/m.

On to `OCCO` + CCCC[n+]1ccn(C)c1.F[B-](F)(F)F, for which, for the setting “x2 = 0”, the electrical conductivity is 0.001 S/m and the viscosity is 17.41 mPa·s.
